In US7273856B2, “Linear basic compounds having NK-2 antagonist activity and formulations thereof” (Menarini Ricerche S.P.A., priority 2001, dated 2007):
“And” between values parts separate entries of the source, which are not always exact repeats. Equal values may be shown once. Where a name gives a salt, the structure may show the parent alone.

Biological target: T1, human NK-2 receptor (Homo sapiens, UniProt P21452)
T1 construct: expressed in transfected cells; host or cells: CHO (Chinese hamster ovary) cells, membranes
T1 sequence (P21452 1-398): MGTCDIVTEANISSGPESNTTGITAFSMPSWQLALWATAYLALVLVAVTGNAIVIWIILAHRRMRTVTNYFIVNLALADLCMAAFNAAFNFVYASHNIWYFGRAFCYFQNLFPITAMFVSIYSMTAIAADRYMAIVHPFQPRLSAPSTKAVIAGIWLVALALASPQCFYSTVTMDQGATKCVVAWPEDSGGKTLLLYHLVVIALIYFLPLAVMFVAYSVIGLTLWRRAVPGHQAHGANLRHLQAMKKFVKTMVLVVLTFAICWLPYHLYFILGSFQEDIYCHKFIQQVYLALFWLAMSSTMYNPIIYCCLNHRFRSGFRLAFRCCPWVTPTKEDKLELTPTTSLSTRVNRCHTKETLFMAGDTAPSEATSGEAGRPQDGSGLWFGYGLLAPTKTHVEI
Assay: binding test, affinity for the human NK-2 receptor, competition with [125I]NKA on transfected CHO cell membranes
Conditions: CHO cell membranes transfected with NK-2 receptor of human ileum; [125I]NKA 100 pM; 30 min, 20° C.
Description: The evaluation of the antagonist activity on NK-2 receptors has been assessed by binding and functional tests according to that already described in literature in relation to NK-2 antagonists.
The test substances have been tested within a concentration range from 0.01 nM to 10 nM. At the end of the incubation time (30 min, 20° C.) the samples have been filtered and radioactivity has been determined using a gamma-counter.

| Compound | Ki | pKi |
| --- | --- | --- |
| O=C(C=Cc1ccc(Cl)c(Cl)c1)NC1(C(=O)N[C@H](Cc2ccccc2)C(=O)NCCCN2CCOCC2)CCCC1 [Example 44, 1-[3-(3,4-dichlorophenyl)-acryloylamino]-cyclopentanecarboxylic acid, [1-(3-morpholin-4-yl-propylcarbamoyl)-2-(R)-phenyl-ethyl]-amide] | 0.794 nM |  |
| CC(C)N1CCC(CNC(=O)[C@@H](Cc2ccccc2)NC(=O)C2(NC(=O)c3cc4ccccc4s3)CCCC2)CC1 [Example 70, Benzo[b]thiophene-2-carboxylic acid (1-{1-(R)-[(1-isopropyl-piperidin-4-ylmethyl)-carbamoyl]-2-phenyl-ethylcarbamoyl}-cyclopentyl)-amide] | 1.58 nM |  |
| CCN(CC)c1ccc2cc(C(=O)NC3(C(=O)N[C@H](Cc4ccccc4)C(=O)NCC4CCN(CC5CCOCC5)CC4)CCCC3)oc2c1 [Example 145, 6-Diethylamino-benzofuran-2-carboxylic acid [1-(2-phenyl-1-{[1R-(tetrahydro-pyran-4-ylmethyl)-piperidin-4-ylmethyl)-carbamoyl}-ethylcarbamoyl)-cyclopentyl]-amide] | 0.501 nM |  |
| O=C(NC1(C(=O)N[C@H](Cc2ccccc2)C(=O)NCC2CCN(CC3CCOCC3)CC2)CCCC1)c1cc2cc(Br)ccc2o1 [Example 123, 5-Bromo-benzofuran-2-carboxylic acid [1-(2-phenyl-1R-{[1-(tetrahydro-pyran-4-ylmethyl)-piperidin-4-ylmethyl]-carbamoyl}-ethylcarbamoyl)cyclopentyl]-amide] | 0.1 nM |  |
| O=C(NC1(C(=O)N[C@H](Cc2ccccc2)C(=O)NCCC2CCN(C[C@@H]3CCCN3)CC2)CCCC1)c1ccc2cc(Br)ccc2c1 [Example 84, 6-Bromo-naphthalene-2-carboxylic acid (1-{2-phenyl-1(R)-[2-(1-pyrrolidin-2(S)-ylmethyl-piperidin-4-yl)ethylcarbamoyl]-ethylcarbamoyl}-cyclopentyl)amide TFA salt] | 0.316 nM |  |
| Cc1ccc(C=CC(=O)NC2(C(=O)NC(Cc3ccccc3)C(=O)NC3CCC(C(=O)NC4CCCCC4N(C)C)C3)CCCC2)cc1 [Example 10, N^γ{N^α[N^α(4-methyl-cinnamoyl)-1-aminocyclopentan-1-carboxy]-D-phenylalanyl}-(1R,3S)-3-aminocyclopentane-1-carboxylic-acid-N-((1S,2S)-2-dimethylaminocyclohexyl)amide hydrochloride salt] | 0.501 nM |  |
| O=C(NC1(C(=O)N[C@H](Cc2ccccc2)C(=O)NCCCN2CCOCC2)CCCC1)c1cc2cc(Br)ccc2o1 [Example 104, 5-Bromo-benzofuran-2-carboxylic acid {1-[1R-(3-morpholin-4-yl-propylcarbamoyl)2-phenyl-ethylcarbamoyl]-cyclopentyl}-amide] | 0.501 nM and 0.316 nM |  |
| NC1CCCCC1NC(=O)C1CCCC(NC(=O)C(Cc2ccccc2)NC(=O)C2(NC(=O)c3cc4ccccc4s3)CCCCC2)C1 (single isomer, unassigned) [Example 28] | 0.0501 nM |  |
| NC1(C(=O)N2CCC(CNC(=O)[C@@H](Cc3ccccc3)NC(=O)C3(NC(=O)c4ccc5cc(Br)ccc5c4)CCCC3)CC2)CCCCC1 [Example 97, 6-Bromo-naphthalene-2-carboxylic acid [1-(1(R)-{[1-(1-amino-cyclohexanecarbonyl)-piperidin-4-ylmethyl]-carbamoyl}-2-phenyl-ethylcarbamoyl)-cyclopentyl]-amide] | 0.02 nM |  |
| NC1(C(=O)N2CCC(CNC(=O)[C@@H](Cc3ccccc3)NC(=O)C3(NC(=O)c4cc5ccccc5s4)CCCC3)CC2)CCCCC1 [Example 96, Benzo[b]thiophene-2-carboxylic acid [1-(1(R)-{[1-(1-aminocyclohexanecarbonyl)-piperidin-4-ylmethyl]-carbamoyl}-2-phenyl-ethylcarbamoyl)-cyclopentyl]-amide TFA salt] | 0.1 nM |  |
| COc1ccc2oc(C(=O)NC3(C(=O)N[C@H](Cc4ccccc4)C(=O)NCC4CCN(CC5CCOCC5)CC4)CCCC3)cc2c1 [Example 146, 5-Methoxy-benzofuran-2-carboxylic acid [1-(2-phenyl-1-{[1R-(tetrahydro-pyran-4-ylmethyl)-piperidin-4-ylmethyl]-carbamoyl}-ethylcarbamoyl)-cyclopentyl]-amide] | 0.398 nM |  |
| O=C(NC1(C(=O)N[C@H](Cc2ccccc2)C(=O)NCCC(=O)N2CCN(c3ccccn3)CC2)CCCC1)c1ccc2cc(Br)ccc2c1 [Example 58, 6-Bromo-naphthalene-2-carboxylic acid (1-{1(R)-[3-oxo-3-(4-pyridin-2-yl-piperazin-1-yl)propylcarbamoyl]-2-phenyl-ethylcarbamoyl}-cyclopentyl)-amide TFA salt] | 3.16 nM |  |
| CC[C@@](C)(NC(=O)C=Cc1ccc(C)cc1)C(=O)N[C@H](Cc1ccccc1)C(=O)N[C@H]1CC[C@@H](C(=O)N[C@H]2CCCC[C@@H]2N)C1.O=C(O)C(F)(F)F [Example 15, N^γ{N^α[N^α(4-methylcinnamoyl)-(R)-α-methyl-α-ethylglycyl]-D-phenylalanyl}-(1R,3S)-3-amino cyclopentane-1-carboxylic-acid-N-((1S,2S)-2-aminocyclohexyl) amide trifluoroacetate salt] |  | 10.0 |
| O=C(NC1(C(=O)N[C@H](Cc2ccccc2)C(=O)NCCCN2CCOCC2)CCCC1)c1cc2ccc(Cl)c(Cl)c2s1 [Example 116, 6,7-Dichloro-benzo[b]thiophene-2-carboxylic acid {1-[1R-(3-morpholin-4-yl-propylcarbamoyl)-2-phenyl-ethylcarbamoyl]-cyclopentyl}-amide] | 0.316 nM |  |
| NC1CCCCC1NC(=O)[C@@H]1C[C@@H](NC(=O)[C@@H](Cc2ccccc2)NC(=O)C2(NC(=O)c3cc4ccccc4s3)CCCC2)CN1 (relative stereo) [Example 36] |  | 10.6 |
| O=C(NC1(C(=O)N[C@H](Cc2ccccc2)C(=O)NCC2CCN(CC3COCOC3)CC2)CCCC1)c1ccc2cc(Br)ccc2c1 [Example 89, 6-Bromo-naphthalene-2-carboxylic acid (1-{1(R)-[(1-[1,3]dioxan-5-ylmethyl-piperidin-4-ylmethyl)-carbamoyl]-2-phenyl-ethylcarbamoyl}-cyclopentyl)-amide] | 0.126 nM |  |
| O=C(N[C@]1(C(=O)N[C@H](Cc2ccccc2)C(=O)NCCCN2CCOCC2)CCc2ccccc21)c1cc2ccccc2s1 [Example 23, N^α[N^α(benzo[b]thiophen-2-ylcarbonyl)-1-(R)-amino-indan-1-carboxy]-D-phenylalanine-N-[3(morpholin-4-yl)propyl]amide] | 2 nM |  |
| C[C@@H]1CN(C(=O)CCNC(=O)[C@@H](Cc2ccccc2)NC(=O)C2(NC(=O)c3cc4ccccc4s3)CCCC2)C[C@H](C)N1 [Example 56, Benzo[b]thiophene-2-carboxylic acid (1-{1(R)-[3-(3,5-cis-dimethylpiperazin-1-yl)-3-oxo-propylcarbamoyl]-2-phenyl-ethylcarbamoyl}-cyclopentyl)-amide TFA salt] | 1.58 nM |  |
| O=C(NC1(C(=O)N[C@H](Cc2ccccc2)C(=O)NCC2CN(CC3CCOCC3)C2)CCCC1)c1cc2ccccc2s1 [Example 152, Benzo[b]thiophene-2-carboxylic acid [1-(2-phenyl-1(R)-{[1-(tetrahydro-pyran-4-ylmethyl)-azetidin-3-ylmethyl]-carbamoyl}-ethylcarbamoyl)-cyclopentyl]-amide] | 0.126 nM |  |
| O=C(NC1(C(=O)N[C@H](Cc2ccccc2)C(=O)NCCCN2CCOCC2)CCCCC1)c1cc2ccccc2s1 [Example 20, N^α[N^α(benzo[b]thiophen-2-yl-carbonyl)-1-aminocyclohexan-1-carboxy]-D-phenylalanine-N-[3(morpholin-4-yl)propyl]amide] |  | 9.1 |
| O=C(NC1(C(=O)N[C@H](Cc2ccccc2)C(=O)NCCCN2CCOCC2)CCCCC1)c1cc2ccc(Br)cc2s1 [Example 109, 6-Bromo-benzo[b]thiophene-2-carboxylic acid {1-[1R-(3-morpholin-4-yl-propylcarbamoyl)-2-phenyl-ethylcarbamoyl]-cyclohexyl}-amide] | 0.1 nM |  |
| NC1CCCCC1NC(=O)C1CCCC(NC(=O)C(Cc2ccccc2)NC(=O)C2(NC(=O)c3cc4ccccc4s3)CCCCC2)C1 (single isomer, unassigned) [Example 21] | 0.251 nM |  |
| O=C(NC1(C(=O)N[C@H](Cc2ccccc2)C(=O)NCC2CCN(CC3CCOCC3)CC2)CCCC1)c1cc2ccc(Br)cc2o1 [Example 119, 6-Bromo-benzofuran-2-carboxylic acid [1-(2-phenyl-1R-{[1-(tetrahydro-pyran-4-ylmethyl)-piperidin-4-ylmethyl]-carbamoyl}-ethylcarbamoyl)cyclopentyl]-amide] | 0.251 nM |  |
| CN(C)[C@H]1CCCC[C@@H]1NC(=O)[C@@H]1CC[C@H](NC(=O)[C@@H](Cc2ccccc2)NC(=O)C2(NC(=O)c3cc4ccccc4n3C)CCCC2)C1 [Example 13, N^γ{N^α[N^α((methyl)indol-2-ylcarboxy)-1-aminocyclopentan-1-carboxy]-D-phenylalanyl}-(1R,3S)-3-aminocyclopentane-1-carboxylic-acid-N-((1S,2S)-2-dimethylaminocyclohexyl)amide hydrochloride salt] | 1 nM |  |
